Measurements taken from patent US8946426B2, “Substituted bicyclic heterocyclic compounds as gamma secretase modulators” (Janssen Pharmaceuticals, Inc., priority 2009, dated 2015).

Assays:
Type in all cases: cell-based
[1] = system: Aβtotal; experiment: Method 2: Aβtotal Alphalisa in supernatant of SKNBE2 cells carrying APP 695-wild type (Table 7c); conditions: Method 2, Alphalisa, overnight incubation
Protocol: (§1) Screening was carried out using SKNBE2 cells carrying the APP 695-wild type, grown in Dulbecco's Modified Eagle's Medium/Nutrient mixture F-12 (DMEM/NUT-mix F-12) (HAM) provided by Invitrogen (cat no. 10371-029) containing 5% Serum/Fe supplemented with 1% non-essential amino acids, 1-glutamine 2 mM, Hepes 15 mM, penicillin 50 U/ml (units/ml) en streptomycin 50 μg/ml. Cells were grown to near confluency.
(§2) The screening was performed using a modification of the assay as described in Citron et al (1997) Nature Medicine 3: 67. Briefly, cells were plated in a 384-well plate at 10^4 cells/well in Ultraculture (Lonza, BE12-725F) supplemented with 1% glutamine (Invitrogen, 25030-024), 1% non-essential amino acid (NEAA), penicillin 50 U/ml en streptomycin 50 μg/ml in the presence of test compound at different test concentrations. The cell/compound mixture was incubated overnight at 37° C., 5% CO2. The next day the media were assayed by two sandwich immuno-assays, for Aβ42 and Aβtotal.
(§3) Aβtotal and Aβ42 concentrations were quantified in the cell supernatant using the Aphalisa technology (Perkin Elmer). Alphalisa is a sandwich assay using biotinylated antibody attached to streptavidin coated donorbeads and antibody conjugated to acceptor beads. In the presence of antigen, the beads come into close proximity. The excitation of the donor beads provokes the release of singlet oxygen molecules that trigger a cascade of energy transfer in the acceptor beads, resulting in light emission. To quantify the amount of Aβ42 in the cell supernatant, monoclonal antibody specific to the C-terminus of Aβ42 (JRF/cAβ42/26) was coupled to the receptor beads and biotinylated antibody specific to the N-terminus of Aβ (JRF/AβN/25) was used to react with the donor beads. To quantify the amount of Aβtotal in the cell supernatant, monoclonal antibody specific to the N-terminus of Aβ (JRF/AβN/25) was coupled to the receptor beads and biotinylated antibody specific to the mid region of Aβ (biotinylated 4G8) was used to react with the donor beads.
(§4) To obtain the values reported in Table 7c, the data were calculated as percentage of the maximum amount of amyloid Beta 42 measured in the absence of the test compound. The sigmoidal dose response curves were analyzed using non-linear regression analysis with percentage of the control plotted against the log concentration of the compound. A 4-parameter equation was used to determine the IC50.

[2] = system: Aβ42; experiment: Method 2: Aβ42 Alphalisa in supernatant of SKNBE2 cells carrying APP 695-wild type (Table 7c); conditions: Method 2, Alphalisa, overnight incubation
Protocol: as §1, §2, §3, §4

[3] = system: Aβ42; experiment: Method 1: Aβ42 sandwich ELISA in supernatant of SKNBE2 cells carrying APP 695-wild type (Tables 7a, 7b); conditions: Table 7b, averaged IC50, non-linear regression of percentage of control vs log concentration, 4-parameter equation
Protocol: as §1, with “Gibco” for “Invitrogen”, “31330-38)” for “10371-029)”, “acids.” for “acids, 1-glutamine 2 mM, Hepes 15 mM, penicillin 50 U/ml (units/ml) en streptomycin 50 μg/ml.”
(§5) The screening was performed using the assay as described in Citron et al (1997) Nature Medicine 3: 67. Briefly, cells were plated in a 96-well plate at about 10^5 cells/ml one day prior to addition of compounds. Compounds were added to the cells in Ultraculture (Lonza, BE12-725F) supplemented with 1% glutamine (Invitrogen, 25030-024) for 18 Hours. The media were assayed by two sandwich ELISAs, for Aβ42 and Aβtotal. Toxicity of the compounds was assayed by WST-1 cell proliferation reagent (Roche, 1 644 807) according to the manufacturer's protocol.
To quantify the amount of Aβ42 in the cell supernatant, commercially available Enzyme-Linked-Immunosorbent-Assay (ELISA) kits were used (Innotest® β-Amyloid(1-42), Innogenetics N.V., Ghent, Belgium). The Aβ42 ELISA was performed essentially according to the manufacturer's protocol. Briefly, the standards (dilutions of synthetic Aβ1-42) were prepared in polypropylene Eppendorf with final concentrations of 8000 down to 3.9 pg/ml (½ dilution step). Samples, standards and blanks (100 μl) were added to the anti-Aβ42-coated plate supplied with the kit (the capture antibody selectively recognizes the C-terminal end of the antigen). The plate was allowed to incubate 3 H at 25° C. in order to allow formation of the antibody-amyloid complex. Following this incubation and subsequent wash steps a selective anti-Aβ-antibody conjugate (biotinylated 3D6) was added and incubated for a minimum of 1 Hour in order to allow formation of the antibody-Amyloid-antibody-complex. After incubation and appropriate wash steps, a Streptavidine-Peroxidase-Conjugate was added, followed 30 minutes later by an addition of 3,3′,5,5′-tetramethylbenzidine (TMB)/peroxide mixture, resulting in the conversion of the substrate into a coloured product. This reaction was stopped by the addition of sulfuric acid (0.9 N) and the colour intensity was measured by means of photometry with an ELISA-reader with a 450 nm filter.
(§6) To obtain the values reported in Table 7a, the sigmoidal dose response curves were analysed by computerised curve-fitting, with percent of inhibition plotted against compound concentration. A 4-parameter equation (model 205) in XLfit was used to determine the IC50. The top and the bottom of the curve were fixed to 100 and 0, respectively, and the hill slope was fixed to 1. The IC50 represents the concentration of a compound that is required for inhibiting a biological effect by 50% (Here, it is the concentration where Aβ peptide level is reduced by 50%).
as §4, with “7b,” for “7c,”, “IC50. The values reported in Table 7b are averaged IC50 values.” for “IC50.”

[4] = system: Aβtotal; experiment: Method 1: Aβtotal sandwich ELISA in supernatant of SKNBE2 cells carrying APP 695-wild type (Tables 7a, 7b); conditions: Table 7b, averaged IC50, non-linear regression of percentage of control vs log concentration, 4-parameter equation
Protocol: as §1, with “Gibco” for “Invitrogen”, “31330-38)” for “10371-029)”, “acids.” for “acids, 1-glutamine 2 mM, Hepes 15 mM, penicillin 50 U/ml (units/ml) en streptomycin 50 μg/ml.”
as §5
To quantify the amount of Aβtotal in the cell supernatant, samples and standards were added to a 6E10-coated plate. The plate was allowed to incubate overnight at 4° C. in order to allow formation of the antibody-amyloid complex. Following this incubation and subsequent wash steps a selective anti-Aβ-antibody conjugate (biotinylated 4G8) was added and incubated for a minimum of 1 Hour in order to allow formation of the antibody-Amyloid-antibody-complex. After incubation and appropriate wash steps, a Streptavidine-Peroxidase-Conjugate was added, followed 30 minutes later by an addition of Quanta Blu fluorogenic peroxidase substrate according to the manufacturer's instructions (Pierce Corp., Rockford, Ill.).
as §6
as §4, with “7b,” for “7c,”, “IC50. The values reported in Table 7b are averaged IC50 values.” for “IC50.”

For COc1nc(Nc2cccc3c2nc(-c2ccc(F)cc2)n3C)ccc1-c1cnn(C)c1 [Compound 68], the IC50 [1] was > 10 µM and the IC50 [2] was 0.018 µM.
For COc1nc(Nc2cccc3c2nc(-c2ccc(F)cc2)n3C(C)C)ccc1-c1cnn(C)c1 [Compound 69], the IC50 [1] was > 10 µM and the IC50 [2] was 0.022 µM.
For COc1cc(Nc2cccc3c2nc(-c2ccc(F)cc2)n3C)ccc1-c1cnn(C)n1 [Compound 73], the IC50 [1] was 5.62 µM and the IC50 [2] was 0.141 µM.
COc1cc(Nc2cccc3c2nc(-c2ccc(F)cc2)n3C)ccc1-c1cn(C)nn1 [Compound 74] was tested, and the IC50 [1] was 4.47 µM and the IC50 [2] was 7.41 µM.
For COc1cc(Nc2cccc3c2nc(-c2ccc(F)cc2)n3C(C)C)ccc1-c1oc(C)nc1C [Compound 80], the IC50 [1] was > 10 µM and the IC50 [2] was 0.049 µM.
Cc1nc(C)c(-c2ccc(Nc3cccc4c3nc(-c3ccc(F)cc3)n4C(C)C)cc2)o1 [Compound 81] was tested, and the IC50 [1] was > 10 µM and the IC50 [2] was 0.095 µM.
In the case of COCc1ncc(-c2ccc(Nc3cccc4c3nc(-c3ccc(F)cc3)n4C(C)C)cc2)o1 [Compound 84], the IC50 [1] is reported as > 10 µM and the IC50 [2] is reported as 0.112 µM.
COc1cc(Nc2nc(C)cc3c2nc(-c2ccccc2Cl)n3C)ccc1-c1ocnc1C [Compound 113] was tested, and the IC50 [1] was 4.9 µM and the IC50 [2] was 0.066 µM.
For Cc1ncoc1-c1ccc(Nc2cccc3c2nc(-c2ccc(Cl)s2)n3C(C)C)cn1 [Compound 116], the IC50 [1] was > 10 µM and the IC50 [2] was 0.072 µM.
In the case of COc1cc(Nc2cc(C(F)(F)F)cc3c2nc(CCC(F)(F)F)n3C)ccc1-c1ocnc1C [Compound 126], the IC50 [3] is reported as 0.214 µM and the IC50 [2] is reported as 0.741 µM.
For COc1cc(Nc2nc(C)cc3c2nc(-c2ccc(F)cc2)n3C)ccc1-c1ccnc(C)c1 [Compound 127], the IC50 [1] was 3.63 µM and the IC50 [2] was 0.044 µM.
COc1cc(Nc2cccc3c2nc(-c2ccc(F)cc2)n3C(C)C)ccc1-c1ccnc(C)c1 [Compound 128] was tested, and the IC50 ([1]; Homo sapiens) was 9.12 µM and the IC50 ([2]; Homo sapiens) was 0.039 µM.
Work on COc1nc(Nc2cccc3c2nc(-c2ccc(F)cc2)n3C)ccc1-c1ccnc(C)c1 [Compound 129] yielded an IC50 [1] of 5.25 µM and an IC50 [2] of 0.017 µM.
For COc1nc(Nc2cccc3c2nc(-c2ccc(F)cc2)n3C(C)C)ccc1-c1ccnc(C)c1 [Compound 130], the IC50 [1] was > 10 µM and the IC50 [2] was 0.03 µM.
For Cc1cc(-c2ccc(Nc3cccc4c3nc(-c3ccc(F)cc3)n4C(C)C)cc2)ccn1 [Compound 131], the IC50 [1] was > 10 µM and the IC50 [2] was 0.028 µM.
Cc1cc(-c2ccc(Nc3nc(C)cc4c3nc(-c3ccc(F)cc3)n4C)cc2)ccn1 [Compound 132] gave an IC50 [1] of 6.31 µM and an IC50 [2] of 0.123 µM.
With Cc1cc(-c2ccc(Nc3cccc4c3nc(-c3ccc(F)cc3)n4C)cc2F)ccn1 [Compound 133] the IC50 [1] was > 10 µM and the IC50 [2] was 0.191 µM.
In the case of Cc1cc(-c2ccc(Nc3cccc4c3nc(-c3ccc(F)cc3)n4C)nn2)ccn1 [Compound 135], the IC50 [1] is reported as > 10 µM and the IC50 [2] is reported as 0.347 µM.
For Cc1cc(-c2ccc(Nc3nc(C)cc4c3nc(-c3ccc(F)cc3)n4C)cc2F)ccn1 [Compound 136], the IC50 [1] was > 10 µM and the IC50 [2] was 0.112 µM.
With Cc1cc(-c2ccc(Nc3cccc4c3nc(-c3ccc(F)cc3)n4C(C)C)cc2F)ccn1 [Compound 137] the IC50 [1] was > 10 µM and the IC50 [2] was 0.117 µM.
Molecule Cc1cc(-c2ccc(Nc3cccc4c3nc(-c3ccc(F)cc3)n4C)cc2)ccn1 [Compound 138] has an IC50 [1] of 7.08 µM and an IC50 [2] of 0.049 µM.
COc1cc(Nc2cccc3c2nc(-c2ccc(F)cc2)n3C)ccc1-c1ccnc(C)c1 [Compound 139] gave an IC50 [1] of 6.61 µM and an IC50 [2] of 0.06 µM.
For Cc1cc(-c2ccc(Nc3cccc4c3nc(-c3ccc(F)cc3)n4C(C)C)cc2)cc(C)n1 [Compound 140], the IC50 [1] was > 10 µM and the IC50 [2] was 0.759 µM.
COc1cc(Nc2cc(F)cn3cc(-c4ccc(F)cc4C)nc23)ccc1-c1ocnc1C [Compound 147] showed an IC50 [3] of 0.085 µM and an IC50 [2] of 0.468 µM.
COc1cc(Nc2cccn3cc(C4CCOCC4)nc23)ccc1-c1ocnc1C [Compound 155] gave an IC50 [3] of 0.389 µM and an IC50 [4] of 14.8 µM.
Molecule COc1cc(Nc2cc(C(C)=O)cn3cc(CC(C)C)nc23)ccc1-c1ocnc1C [Compound 156] has an IC50 ([1]; Homo sapiens) of 8.91 µM and an IC50 ([2]; Homo sapiens) of 0.042 µM.
For COc1cc(Nc2nccn3cc(C)nc23)ccc1-c1ocnc1C [Compound 158], the IC50 [1] was > 10 µM and the IC50 [2] was 1.86 µM.
Cc1ncoc1-c1ccc(Nc2cccn3cc(C4CC4)nc23)cn1 [Compound 160] was tested, and the IC50 [3] was 0.138 µM and the IC50 [4] was > 3 µM.
In the case of Cc1ncc(-c2ccc(Nc3cccn4cc(C5CC5)nc34)cc2)o1 [Compound 166], the IC50 [3] is reported as 0.741 µM and the IC50 [4] is reported as > 3 µM.
In the case of COCCCc1c(-c2ccccc2C(F)(F)F)nc2c(Nc3ccc(-c4cnc(C)o4)c(OC)c3)cccn12 [Compound 169], the IC50 ([3]; Homo sapiens, SKNBE2) is reported as 0.045 µM and the IC50 ([4]; Homo sapiens, SKNBE2) is reported as > 3 µM.
Cc1ncc(-c2ccc(Nc3cc(F)cn4cc(-c5ccc(F)cc5C)nc34)cc2)o1 [Compound 176] was tested, and the IC50 [3] was 0.041 µM and the IC50 [4] was > 3 µM.
With C=C(C)c1c(-c2ccc(F)cc2)nc2c(Nc3ccc(-c4cnc(C)o4)cc3)cccn12 [Compound 177] the IC50 ([3]; Homo sapiens, SKNBE2) was 0.105 µM and the IC50 ([4]; Homo sapiens, SKNBE2) was > 3 µM.
For Cc1ncc(-c2ccc(Nc3cc(F)cn4cc(CC(C)C)nc34)cc2)o1 [Compound 178], the IC50 [3] was 0.085 µM and the IC50 [4] was > 3 µM.
In the case of Cc1nc2c(Nc3ccc(-c4cnc(C(C)C)o4)cc3)cccn2c1C [Compound 180], the IC50 [3] is reported as > 3 µM and the IC50 [4] is reported as > 3 µM.
In the case of COc1cc(Nc2cc(C3CC3)nc3c2nc(-c2ccc(F)cc2)n3C)ccc1-c1cnc(C)o1 [Compound 192], the IC50 [3] is reported as 0.013 µM and the IC50 [4] is reported as > 3 µM.
For COc1cc(Nc2cc(C)nc3c2nc(-c2ccc(F)cc2)n3C)ccc1-c1cnc(C)o1 [Compound 193], the IC50 [3] was 0.019 µM and the IC50 [4] was > 3 µM.
COc1cc(Nc2cc(C(F)(F)F)nn3cc(C)nc23)ccc1-c1ocnc1C [Compound 196] was tested, and the IC50 [3] was 0.676 µM and the IC50 [4] was > 3 µM.
In the case of COc1cc(Nc2cncc3c2nc(-c2ccc(F)cc2)n3C)ccc1-c1ocnc1C [Compound 199], the IC50 [3] is reported as 0.24 µM and the IC50 [4] is reported as > 30 µM.
With Cc1ncc(-c2ccc(Nc3cncc4c3nc(-c3ccc(F)cc3)n4C)cn2)o1 [Compound 200] the IC50 [3] was 0.295 µM and the IC50 [4] was > 3 µM.
